Here are results for two compounds from patent publication US20030236246A1, “Method for decreasing capillary permeability in the retina” (priority 2002, published 2003).

One assay relates to C57B/J6 mice. Kind of assay: BRB breakdown in mice after intravitreal VEGF, quantitated with [3H]-mannitol tracer. The class given is in vivo. An excerpt:
Intraperitoneally administered radiolabeled tracer can be used to quantitate BRB breakdown in mice exposed to vascular endothelial growth factor (VEGF). This technique is particularly advantageous with neonatal mice because of the technical difficulty involved with intravascular injections. Also, the comparison of retinas from injected and control eyes to tissues without a blood-tissue barrier corrects for variations in the amount of isotope injected or absorbed into the circulation.
Ten six- to seven-week-old C57B/J6 mice (Jackson Labs, Bar Harbor, Me.) are weighed to determine the proper dosage of anesthesia and tracer required. Mice are anesthetized with a solution containing 25 mg/kg ketamine (Ketaset; Fort Dodge Animal Health, Fort Dodge, Iowa) and 4 mg/kg rompun (Tranquived; Vedco, St. Joseph, Mo.) diluted 1:10 in saline prior to injection. Five mice are subjected to gavage with 50 mg/kg N-benzoyl staurosporine for three days prior to intravitreal administration of VEGF; the other five mice are subjected to gavage with vehicle.
Tropicamide (1%) is used to dilate the pupils of anesthetized mice. Under a dissecting microscope, a Harvard injector (PLI 100) is used with a glass pipet pulled to a diameter of 13-20 μm to inject 1 μl of saline containing VEGF (R&D Systems, Minneapolis, Minn.). The eyes are entered posterior to the limbus, directing the pipet toward the optic nerve. The solution is then deposited just in front of the retina without inflicting any damage to the lens. […]
One ml NCSII (Amersham, Chicago, Ill.) solubilizing solution is added to each vial and the vials are incubated overnight in a 50° C. water bath. […] The specimens are counted on a Wallac 1409 Liquid Scintillation Counter (Gaithersburg, :Md.).
The counts per mg tissue are determined for treated (with N-benzoyl staurosporine) and untreated retina, lung, and kidney. Ratios of these values for treated or untreated retina/lung or kidney and for lung/kidney are calculated. […]

The next assay has as its system C57BL/6J mice. Nature of the assay: PG-induced breakdown of the BRB in mice after intraocular injection of a vasopermeability factor. It is filed as in vivo. To be noted: 50 mg/kg/day by gavage for 3 days, then intraocular PGE1 or PGE2 10^-5 M. Here is the method:
Six to seven week old male C57BL/6J mice are treated in accordance with the ARVO resolution on the care of animals in research. Mice are treated by gavage with vehicle or vehicle containing 50 mg/kg/day of PKC412, PTK787, SU1498, or Gleevec. After 3 days of treatment, mice are given an intraocular injection of 1 μl of vehicle containing a vasopermeability factor or vehicle alone.
Mice are anesthetized with 25 mg/kg of ketamine and 4 mg/kg of xylazine, pupils are dilated with 1% tropicamide. Intraocular injections are performed as previously described with a Harvard pump microinjection apparatus and pulled glass micropipets. Each micropipet is calibrated to deliver 1 μl of vehicle upon depression of a foot switch. […] Some mice are used for quantitative measurement of BRB breakdown using [3H]mannitol and in others leakage of albumin through retinal vessels is assessed by Western blots or immunohistochemistry.
Six or 24 hours after intraocular injections, mice are given an intraperitoneal injection of 1 μCi / gram body weight of [3H]mannitol (New England Nuclear, Boston, Mass.). […] The vials are weighed and the tissue weights are recorded. […] Radioactivity is counted with a Wallac 1409 Liquid Scintillation Counter (Gaithersburg, Md.). […]

[1] abbreviates: mice, 50 mg/kg by gavage for three days before intravitreal VEGF 10^-6 M, [3H]-mannitol at 6 hours.

Structures are written as SMILES.

Take `CO[C@@H]1[C@H](N(C)C(=O)c2ccccc2)C[C@H]2O[C@]1(C)n1c3ccccc3c3c4c(c5c6ccccc6n2c5c31)C(=O)NC4` [N-benzoyl staurosporine]: the “leakage of radioactive tracer out of the retinal blood vessels” value in the assay with C57B/J6 mice (VEGF-injected mice given 50 mg/kg N-benzoyl staurosporine by gavage for three days, compared to vehicle-gavaged VEGF-injected mice) is “significantly less leakage”. In the assay on C57B/J6 mice (setting [1]), the retina/kidney ratio was 0.3881±0.0436 and the “retina/lung ratio (cpm per mg of retina/cpm per mg of lung)” value is reported as 0.6326±0.0656. Moreover, the “PG-induced breakdown of the BRB” value in the assay with C57BL/6J mice is reported as “reduces PG-induced breakdown of the BRB”.
As for `Clc1ccc(Nc2nnc(Cc3ccncc3)c3ccccc23)cc1` [PTK787, reference compound], the “PG-induced breakdown of the BRB” value with C57BL/6J mice is given as “not”.
